Drawing on ChEMBL document CHEMBL1127045 (J Med Chem, 1993), this text covers Ki, inhibition and ED50 for 29 compounds.

Molecules are shown by their SMILES.

Assay [1] concerns the target D(2) dopamine receptor (Rattus norvegicus, UniProt P61169). Kind of assay: Binding affinity against dopamine receptor D2 from rat corpus striatum by using radioligand [3H]sulpiride.
Assay [2] addresses 5-HT2A receptor (Rattus norvegicus). Kind of assay: Binding affinity against 5-hydroxytryptamine 2 receptor from rat cortical synaptosomal membrane using radioligand [3H]ketanserin.
The target of assay [3] is Serotonin 2 (5-HT2) receptor (Mus musculus) (UniProt Q02152+P34968+P35363). Kind of assay: Effective dose through peroral route for in vivo inhibition against 5-hydroxytryptamine 2 receptor in male CF-1 mice by using radioligand [3H]ketanserin. Type of assay: organism-based.
Chain of Serotonin 2 (5-HT2) receptor (Mus musculus) (P34968 whole entry, looked up): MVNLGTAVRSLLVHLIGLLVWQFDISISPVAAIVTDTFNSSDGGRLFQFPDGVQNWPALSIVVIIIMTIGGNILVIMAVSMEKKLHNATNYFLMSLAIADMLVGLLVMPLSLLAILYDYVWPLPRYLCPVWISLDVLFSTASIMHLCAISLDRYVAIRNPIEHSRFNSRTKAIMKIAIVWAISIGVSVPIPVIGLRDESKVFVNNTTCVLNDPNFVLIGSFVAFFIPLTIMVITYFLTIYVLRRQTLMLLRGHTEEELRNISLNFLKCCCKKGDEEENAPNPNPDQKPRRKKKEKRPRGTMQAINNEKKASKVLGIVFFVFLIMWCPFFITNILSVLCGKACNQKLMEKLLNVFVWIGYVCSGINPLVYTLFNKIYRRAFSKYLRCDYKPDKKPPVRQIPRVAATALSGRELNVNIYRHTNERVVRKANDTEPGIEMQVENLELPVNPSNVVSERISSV
Chain of Serotonin 2 (5-HT2) receptor (Mus musculus) (P35363 whole entry, looked up): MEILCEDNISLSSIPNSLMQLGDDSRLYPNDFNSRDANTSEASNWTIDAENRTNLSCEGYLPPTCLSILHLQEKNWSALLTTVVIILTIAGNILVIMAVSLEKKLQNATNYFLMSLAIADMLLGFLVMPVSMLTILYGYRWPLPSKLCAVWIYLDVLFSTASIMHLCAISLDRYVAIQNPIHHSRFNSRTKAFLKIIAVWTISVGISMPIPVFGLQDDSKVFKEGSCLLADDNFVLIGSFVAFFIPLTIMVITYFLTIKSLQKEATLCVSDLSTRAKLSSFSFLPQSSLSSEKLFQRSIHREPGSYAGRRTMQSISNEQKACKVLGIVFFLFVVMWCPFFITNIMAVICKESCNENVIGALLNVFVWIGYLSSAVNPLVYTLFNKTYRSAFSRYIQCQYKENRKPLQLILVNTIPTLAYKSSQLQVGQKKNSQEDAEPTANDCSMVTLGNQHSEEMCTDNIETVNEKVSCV
Chain of Serotonin 2 (5-HT2) receptor (Mus musculus) (Q02152 whole entry, looked up): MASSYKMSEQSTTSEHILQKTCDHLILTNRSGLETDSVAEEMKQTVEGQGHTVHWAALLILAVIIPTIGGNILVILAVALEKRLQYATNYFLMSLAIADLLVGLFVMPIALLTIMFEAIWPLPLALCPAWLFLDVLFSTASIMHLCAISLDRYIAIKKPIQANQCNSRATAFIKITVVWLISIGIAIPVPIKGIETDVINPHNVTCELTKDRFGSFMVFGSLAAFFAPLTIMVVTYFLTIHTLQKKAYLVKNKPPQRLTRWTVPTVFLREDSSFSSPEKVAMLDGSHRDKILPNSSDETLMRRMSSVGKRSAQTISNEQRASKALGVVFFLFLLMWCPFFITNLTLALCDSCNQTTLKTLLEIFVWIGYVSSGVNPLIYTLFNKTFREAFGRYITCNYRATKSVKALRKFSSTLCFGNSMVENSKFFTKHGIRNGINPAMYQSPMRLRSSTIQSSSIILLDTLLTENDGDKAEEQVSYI

Chain of D(2) dopamine receptor (P61169 whole entry): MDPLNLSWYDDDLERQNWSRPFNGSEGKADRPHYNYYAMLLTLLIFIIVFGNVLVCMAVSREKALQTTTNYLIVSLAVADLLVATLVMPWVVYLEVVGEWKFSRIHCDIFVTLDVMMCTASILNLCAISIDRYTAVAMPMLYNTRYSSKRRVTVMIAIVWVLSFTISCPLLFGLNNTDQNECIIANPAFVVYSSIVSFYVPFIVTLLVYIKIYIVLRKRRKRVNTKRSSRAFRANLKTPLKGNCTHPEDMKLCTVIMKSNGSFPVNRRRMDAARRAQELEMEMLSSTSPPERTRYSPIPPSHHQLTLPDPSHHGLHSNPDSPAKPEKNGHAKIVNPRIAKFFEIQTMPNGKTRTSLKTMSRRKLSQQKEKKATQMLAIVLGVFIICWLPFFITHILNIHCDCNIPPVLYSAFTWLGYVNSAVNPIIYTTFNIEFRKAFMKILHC

Consider `O=C(CCCN1C2CCC1c1c([nH]c3ccc(F)cc13)C2)c1ccco1` (stereo unspecified), for which the values for the Ki in assay [1] and in assay [2] were 643 nM and 264 nM, respectively. Regarding `c1ccc2c(CCCN3C4CCC3c3c([nH]c5ccccc35)C4)c[nH]c2c1` (stereo unspecified), affinity in assay [1] was put at a Ki of 1160 nM.

In the case of `O=C(CCCCN1C2CCCC1c1c([nH]c3ccc(F)cc13)C2)c1ccccc1` (stereo unspecified), the inhibitory constant (Ki) in assay [1] was found to be 72 nM; in assay [2], 59.8 nM. Consider `c1ccc2c3c([nH]c2c1)CC1CCC3N1` (stereo unspecified), for which, in assay [1], the Ki is above 10000 nM. Turning to `Fc1ccc2c(CCCN3C4CCCC3c3c([nH]c5ccc(F)cc35)C4)noc2c1` (stereo unspecified), the Ki in assay [1] was determined as 248 nM; in assay [2], 13.4 nM. Turning to `O=C(CCCN1C2CCC1c1c([nH]c3ccccc13)C2)c1ccccc1` (stereo unspecified), the inhibition in assay [3] stood at 12%. Moreover, the results for the Ki in assay [1] and in assay [2] were 540 nM and 6.55 nM, respectively. Consider `c1ccc2sc(CCCCN3C4CCC3c3c([nH]c5ccccc35)C4)cc2c1` (stereo unspecified), for which the Ki was 416 nM in assay [1] and 610 nM in assay [2]. For the compound `O=C(CCCCN1C2CCC1c1c([nH]c3ccccc13)C2)c1ccc(F)cc1` (stereo unspecified), the ED50 in assay [3] is 7.32 mg/kg. Turning to `Cn1c2c(c3ccccc31)C1CCC(C2)N1CCCC(=O)c1ccc(F)cc1` (stereo unspecified), the figures for the Ki in assay [1] and in assay [2] were 287 nM and 2.83 nM, respectively. `O=C(CCCN1C2CCC1c1c(n(-c3ccccc3)c3ccccc13)C2)c1ccc(F)cc1` (stereo unspecified) gave a Ki in assay [2] of 330 nM. Turning to `Fc1ccc(CCCCN2C3CCCC2c2c([nH]c4ccccc24)C3)cc1` (stereo unspecified), the Ki in assay [1] amounted to 973 nM; in assay [2], 24.5 nM.

On to `O=C1CC2CCC(C1)N2CCCC(=O)c1ccc(F)cc1`, for which the Ki in assay [1] is 1.3 nM; in assay [2] it was 533 nM.

With `Cc1nc2sccn2c(=O)c1CCN1CCC(=C(c2ccc(F)cc2)c2ccc(F)cc2)CC1` [RITANSERIN], in assay [3], the ED50 stood at 0.14 mg/kg. The compound also returned a Ki in assay [1] of 93 nM.

In the case of `O=S1(=O)c2cccc3cccc(c23)N1CCCCN1C2CCC1c1c([nH]c3ccc(F)cc13)C2` (stereo unspecified), the Ki is 1010 nM in assay [1] and 1245 nM in assay [2]. As for `c1ccc(CCCCN2C3CCCC2c2c([nH]c4ccccc24)C3)cc1` (stereo unspecified), the inhibition constant Ki in assay [1] came to 670 nM; in assay [2], 103 nM. Compound `O=C(CCCCN1C2CCC1c1c([nH]c3ccc(F)cc13)C2)c1ccccc1` (stereo unspecified) displayed an ED50 in assay [3] of 0.65 mg/kg. Besides, the inhibition constant Ki in assay [1] was 2.77 nM; in assay [2] it was 2.98 nM. As to `O=C1c2ccccc2C(=O)N1CCCCN1C2CCC1c1c([nH]c3ccccc13)C2` (stereo unspecified), the Ki was determined as 2630 nM in assay [1] and 879 nM in assay [2]. For `c1ccc2c(CCCCN3C4CCC3c3c([nH]c5ccccc35)C4)c[nH]c2c1` (stereo unspecified), the Ki in assay [1] came out at 853 nM; in assay [2], 329 nM.

Consider `c1ccc2c(c1)ccn2CCCCN1C2CCC1c1c([nH]c3ccccc13)C2` (stereo unspecified), for which the Ki in assay [1] turned out to be 635 nM; in assay [2], 284 nM. Compound `O=C(CCCN1C2CCC1c1c([nH]c3ccccc13)C2)c1ccc(F)cc1` (stereo unspecified) registered an ED50 in assay [3] of 20.9 mg/kg. In addition, in assay [1], affinity was put at a Ki of 275 nM. In the case of `O=C(CCCN1C2CCC1c1c([nH]c3ccccc13)C2)c1cccs1` (stereo unspecified), the Ki in assay [1] came out at 550 nM. In turn, `Fc1ccc2[nH]c3c(c2c1)C1CCCC(C3)N1CCCCc1ccccc1` (stereo unspecified) yielded a Ki in assay [2] of 172 nM. As for `O=C(CCCN1C2CCCC1c1c([nH]c3ccc(F)cc13)C2)c1ccc(F)cc1` (stereo unspecified), the median effective dose (ED50) in assay [3] was 5.89 mg/kg. As for `Fc1ccc2c(CCCCN3C4CCCC3c3c([nH]c5cccc(F)c35)C4)noc2c1` (stereo unspecified), the Ki came to 131 nM in assay [1] and 133 nM in assay [2]. In turn, `O=C(CCCCN1C2CCC1c1c([nH]c3ccc(F)cc13)C2)c1ccc(F)cc1` (stereo unspecified) showed a Ki in assay [1] of 34.1 nM. `O=C(CCCN1C2CCC1c1c([nH]c3ccc(F)cc13)C2)c1ccc(F)cc1` (stereo unspecified): in assay [3], the 50% effect level (ED50) was put at a dose of 41.1 mg/kg.

As to `O=C(CCCCN1C2CCCC1c1c([nH]c3ccccc13)C2)c1ccccc1` (stereo unspecified), the Ki in assay [1] was determined as 43.5 nM; in assay [2], 20.9 nM.

Compound `O=C(CCCN1C2CCCC1c1c([nH]c3ccccc13)C2)c1ccc(F)cc1` (stereo unspecified) came in with an ED50 in assay [3] of 16.3 mg/kg. Further, in assay [2], the Ki is listed as 0.85 nM. On to `Fc1ccc(CCCCN2C3CCCC2c2c([nH]c4ccc(F)cc24)C3)cc1` (stereo unspecified), for which the figures for the Ki in assay [1] and in assay [2] were 1960 nM and 143 nM, respectively.

Usually Ki stands for a dissociation constant, usually derived from enzyme kinetics or from competition with a known ligand. Lower therefore signals a stronger hold on the target. As a reminder, the inhibition is how much of the control response was suppressed. The ED50 is the dose that gives a 50% effect, or the effect in half of the subjects. A high value points to a need for a large dose.
